Data reported in paper PMC9937012 (Journal of Enzyme Inhibition and Medicinal Chemistry, 2023).

Legend:
human H1R = human H1R (Homo sapiens, UniProt P35367); test: Human H1R radioligand displacement assay; format: binding; settings: for inhibition at 10 µM: read-out: hH1R Inhibition at 10 µM [%] ±SD (n); for inhibition at 1 µM: read-out: hH1R Inhibition at 1 µM [%] (n)
human AChE = human AChE (Homo sapiens, UniProt P22303); test: Inhibition of AChE; format: biochemical; settings: for inhibition at 10 µM: read-out: AChE Inhibition at 10 µM [%]
BuChE from human serum = BuChE from human serum (Homo sapiens, UniProt P06276); test: Inhibition of BuChE; format: biochemical; settings: for inhibition at 10 µM: read-out: hBuChE % Inhibition at 10 µM
human recombinant MAO-A = molecular target: T1, human recombinant MAO-A (Homo sapiens, UniProt P21397); test: Inhibition of monoamine oxidase A; format: biochemical; settings: read-out: MAO-A % Inhibition at 10 µM
T1 sequence (P21397 1-527): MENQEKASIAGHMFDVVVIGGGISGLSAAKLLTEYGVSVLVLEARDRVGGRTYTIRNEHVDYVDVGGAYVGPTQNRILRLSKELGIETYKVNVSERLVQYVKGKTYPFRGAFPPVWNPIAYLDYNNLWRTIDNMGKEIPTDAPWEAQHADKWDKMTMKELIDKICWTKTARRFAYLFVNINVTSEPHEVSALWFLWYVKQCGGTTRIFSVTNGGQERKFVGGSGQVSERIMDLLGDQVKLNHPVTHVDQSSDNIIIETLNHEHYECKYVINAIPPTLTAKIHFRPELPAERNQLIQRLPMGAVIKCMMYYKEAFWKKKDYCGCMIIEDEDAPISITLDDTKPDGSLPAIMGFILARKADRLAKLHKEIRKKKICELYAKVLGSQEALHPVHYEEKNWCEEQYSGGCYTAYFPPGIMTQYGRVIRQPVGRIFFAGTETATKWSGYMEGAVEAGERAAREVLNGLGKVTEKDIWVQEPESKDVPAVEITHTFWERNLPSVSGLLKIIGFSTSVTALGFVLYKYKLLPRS

human recombinant MAO-B = molecular target: T2, human recombinant MAO-B (Homo sapiens, UniProt P27338); test: Inhibition of monoamine oxidase B; format: biochemical; settings: for inhibition at 10 µM: read-out: MAO-B % Inhibition at 10 µM, 10 µM; for inhibition at 10 µM / MAO-B % Inhibition at 10 µM: mean of three experiments
T2 sequence (P27338 1-520): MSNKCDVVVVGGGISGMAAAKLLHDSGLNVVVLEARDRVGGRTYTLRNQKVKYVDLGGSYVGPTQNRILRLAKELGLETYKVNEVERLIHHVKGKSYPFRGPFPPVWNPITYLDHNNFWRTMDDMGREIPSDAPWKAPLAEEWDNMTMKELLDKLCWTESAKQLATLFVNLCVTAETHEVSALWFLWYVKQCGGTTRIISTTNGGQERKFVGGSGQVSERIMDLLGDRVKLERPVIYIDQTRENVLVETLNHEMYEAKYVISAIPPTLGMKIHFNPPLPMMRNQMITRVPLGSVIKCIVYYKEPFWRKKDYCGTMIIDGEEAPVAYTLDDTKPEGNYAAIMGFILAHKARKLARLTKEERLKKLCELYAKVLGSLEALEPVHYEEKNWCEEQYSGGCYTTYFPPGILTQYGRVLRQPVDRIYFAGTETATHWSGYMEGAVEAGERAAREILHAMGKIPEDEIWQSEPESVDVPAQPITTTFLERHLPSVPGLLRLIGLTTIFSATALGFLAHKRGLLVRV

human H4R = human H4R (Homo sapiens, UniProt Q9H3N8); test: Human H4R radioligand displacement assay; settings: read-out: hH4R Inhibition at 10 µM [%] (n)
human H3R = human H3R (Homo sapiens, UniProt Q9Y5N1); test: Human H3R radioligand displacement assay
Sequence of human H3R (Q9Y5N1 whole entry): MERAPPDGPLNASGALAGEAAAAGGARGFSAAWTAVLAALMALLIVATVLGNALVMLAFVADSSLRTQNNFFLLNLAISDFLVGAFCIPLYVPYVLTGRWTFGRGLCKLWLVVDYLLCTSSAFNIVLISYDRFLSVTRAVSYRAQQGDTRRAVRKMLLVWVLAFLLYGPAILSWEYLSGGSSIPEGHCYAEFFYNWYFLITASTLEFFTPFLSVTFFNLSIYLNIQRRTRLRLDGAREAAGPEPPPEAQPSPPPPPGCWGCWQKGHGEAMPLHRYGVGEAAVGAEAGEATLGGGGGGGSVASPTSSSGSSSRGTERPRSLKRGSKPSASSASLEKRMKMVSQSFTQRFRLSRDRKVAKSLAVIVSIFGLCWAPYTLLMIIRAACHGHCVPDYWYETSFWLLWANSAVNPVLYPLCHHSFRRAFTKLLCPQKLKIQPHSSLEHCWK

Sequence of human H1R (P35367 whole entry): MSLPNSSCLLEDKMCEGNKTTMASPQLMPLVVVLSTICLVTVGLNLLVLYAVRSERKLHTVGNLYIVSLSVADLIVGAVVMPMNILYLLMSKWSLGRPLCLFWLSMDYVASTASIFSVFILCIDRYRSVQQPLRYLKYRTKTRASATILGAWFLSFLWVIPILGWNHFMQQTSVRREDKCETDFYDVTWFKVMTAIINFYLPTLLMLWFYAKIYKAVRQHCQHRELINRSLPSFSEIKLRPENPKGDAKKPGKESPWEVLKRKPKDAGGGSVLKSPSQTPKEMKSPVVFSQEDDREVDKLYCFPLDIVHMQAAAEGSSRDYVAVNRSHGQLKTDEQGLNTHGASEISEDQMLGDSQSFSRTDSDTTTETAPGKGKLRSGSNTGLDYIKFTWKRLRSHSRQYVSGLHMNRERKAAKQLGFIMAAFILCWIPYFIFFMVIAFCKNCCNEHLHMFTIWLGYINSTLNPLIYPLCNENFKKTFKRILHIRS
Sequence of human AChE (P22303 32-614): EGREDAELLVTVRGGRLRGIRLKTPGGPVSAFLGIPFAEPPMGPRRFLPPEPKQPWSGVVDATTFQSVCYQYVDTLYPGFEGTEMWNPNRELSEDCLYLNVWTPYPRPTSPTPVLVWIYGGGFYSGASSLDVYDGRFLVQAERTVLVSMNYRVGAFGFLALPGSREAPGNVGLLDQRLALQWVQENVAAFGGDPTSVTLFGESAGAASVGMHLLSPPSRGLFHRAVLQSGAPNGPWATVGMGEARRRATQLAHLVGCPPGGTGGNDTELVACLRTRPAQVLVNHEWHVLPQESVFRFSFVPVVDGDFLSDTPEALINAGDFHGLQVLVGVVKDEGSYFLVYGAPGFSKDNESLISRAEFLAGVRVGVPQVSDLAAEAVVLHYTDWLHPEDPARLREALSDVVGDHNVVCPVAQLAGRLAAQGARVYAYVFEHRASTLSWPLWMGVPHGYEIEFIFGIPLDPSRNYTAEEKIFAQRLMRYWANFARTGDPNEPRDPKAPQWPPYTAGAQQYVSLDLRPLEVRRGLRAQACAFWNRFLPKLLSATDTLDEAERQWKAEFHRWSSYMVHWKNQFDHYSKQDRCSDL
Sequence of BuChE from human serum (P06276 29-602): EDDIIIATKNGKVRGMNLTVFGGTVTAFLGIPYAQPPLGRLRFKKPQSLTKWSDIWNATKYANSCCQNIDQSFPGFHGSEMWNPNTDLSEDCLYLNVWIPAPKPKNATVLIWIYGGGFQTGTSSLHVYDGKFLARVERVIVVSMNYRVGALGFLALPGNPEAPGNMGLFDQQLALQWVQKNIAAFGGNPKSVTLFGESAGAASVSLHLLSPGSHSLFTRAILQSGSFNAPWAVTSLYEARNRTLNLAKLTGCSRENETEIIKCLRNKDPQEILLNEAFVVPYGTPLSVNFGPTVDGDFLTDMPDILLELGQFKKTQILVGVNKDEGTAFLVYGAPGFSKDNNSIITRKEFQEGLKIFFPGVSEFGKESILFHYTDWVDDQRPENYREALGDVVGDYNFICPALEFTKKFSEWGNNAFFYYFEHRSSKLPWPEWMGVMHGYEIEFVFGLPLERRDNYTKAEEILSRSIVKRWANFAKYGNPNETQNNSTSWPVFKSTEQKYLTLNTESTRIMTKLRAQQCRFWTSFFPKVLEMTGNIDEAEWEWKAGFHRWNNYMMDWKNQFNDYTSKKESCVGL
Sequence of human H4R (Q9H3N8 whole entry): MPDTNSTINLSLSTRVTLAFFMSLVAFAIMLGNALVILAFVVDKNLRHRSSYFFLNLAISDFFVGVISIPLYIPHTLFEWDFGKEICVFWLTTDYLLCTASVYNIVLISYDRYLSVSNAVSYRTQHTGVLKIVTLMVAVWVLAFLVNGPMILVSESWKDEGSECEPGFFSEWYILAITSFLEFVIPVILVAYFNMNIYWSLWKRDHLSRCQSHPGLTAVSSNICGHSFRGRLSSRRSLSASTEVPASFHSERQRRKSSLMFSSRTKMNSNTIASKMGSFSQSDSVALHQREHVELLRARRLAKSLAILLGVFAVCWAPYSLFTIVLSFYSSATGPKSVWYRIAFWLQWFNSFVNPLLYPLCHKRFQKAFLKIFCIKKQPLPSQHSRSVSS

O=C(c1nc2ccc(OCCN3CCCC3)cc2s1)N1CCCC1 [Compound 3b, Pyrrolidin-1-yl-(6-(2-(pyrrolidin-1-yl)ethoxy)benzo[d]thiazol-2-yl)methanone]
inhibition at 10 µM (human H1R): < 0% | IC50 (human AChE): 440 ± 100 nM | inhibition at 10 µM (human AChE): 95.3 ± 0.8% | IC50 (BuChE from human serum): 5310 ± 10 nM | inhibition at 10 µM (BuChE from human serum): 70 ± 1% | inhibition at 10 µM (human recombinant MAO-A): 58 ± 2% | inhibition at 10 µM (human recombinant MAO-B): 47 ± 3% | inhibition at 10 µM (human H4R): 44.9 ± 18.1% | Ki (human H3R): 640 nM

O=C(c1nc2ccc(OCCCN3CCCCC3)cc2s1)N1CCCCC1 [Compound 3d, Piperidin-1-yl-(6-(3-(piperidin-1-yl)propoxy)benzo[d]thiazol-2-yl)methanone]
inhibition at 10 µM (human H1R): 65.3 ± 9.2% | IC50 (human AChE): > 10000 nM | inhibition at 10 µM (human AChE): 33.6 ± 10.8% | inhibition at 10 µM (BuChE from human serum): 31 ± 1% | inhibition at 10 µM (human recombinant MAO-A): 33 ± 3% | inhibition at 10 µM (human recombinant MAO-B): 28 ± 5% | inhibition at 10 µM (human H4R): 63.1 ± 11.2% | Ki (human H3R): 74 nM

O=C(c1nc2ccc(OCCCN3CCCC3)cc2s1)N1CCCC1 [Compound 3h, Pyrrolidin-1-yl-(6-(3-(pyrrolidin-1-yl)propoxy)benzo[d]thiazol-2-yl)methanone]
inhibition at 10 µM (human H1R): 39.1 ± 13% | IC50 (human AChE): 7210 ± 2300 nM | inhibition at 10 µM (human AChE): 56.8 ± 7.14% | inhibition at 10 µM (BuChE from human serum): 13 ± 2% | inhibition at 10 µM (human recombinant MAO-A): 22 ± 4% | inhibition at 10 µM (human recombinant MAO-B): 24 ± 4% | inhibition at 10 µM (human H4R): 54.3 ± 13% | Ki (human H3R): 38 nM

O=C(c1nc2ccc(OCCCCN3CCCCC3)cc2s1)N1CCCCC1 [Compound 3j, Piperidin-1-yl-(6-(4-(piperidin-1-yl)butoxy)benzo[d]thiazol-2-yl)methanone]
inhibition at 10 µM (human H1R): 42.8 ± 7.7% | IC50 (human AChE): 8560 ± 2830 nM | inhibition at 10 µM (human AChE): 54.8 ± 7.01% | IC50 (BuChE from human serum): 3070 ± 240 nM | inhibition at 10 µM (BuChE from human serum): 70 ± 2% | inhibition at 10 µM (human recombinant MAO-A): 29 ± 5% | inhibition at 10 µM (human recombinant MAO-B): 48 ± 5% | inhibition at 10 µM (human H4R): 53.1 ± 11.7% | Ki (human H3R): 170 nM

O=C(c1nc2ccc(OCCCCN3CCCC3)cc2s1)N1CCCC1 [Compound 3n, Pyrrolidin-1-yl(6-(4-(pyrrolidin-1-yl)butoxy)benzo[d]thiazol-2-yl)methanone]
inhibition at 10 µM (human H1R): 37.5 ± 7.5% | IC50 (human AChE): 1300 ± 100 nM | inhibition at 10 µM (human AChE): 83 ± 3.27% | IC50 (BuChE from human serum): 1320 ± 120 nM | inhibition at 10 µM (BuChE from human serum): 80 ± 1% | inhibition at 10 µM (human recombinant MAO-A): 31 ± 4% | inhibition at 10 µM (human recombinant MAO-B): 49 ± 4% | inhibition at 10 µM (human H4R): 57.9 ± 13.3% | Ki (human H3R): 59 nM

O=C(c1nc2ccc(OCCCCCN3CCCCC3)cc2s1)N1CCCCC1 [Compound 3o, Piperidin-1-yl(6-((5-(piperidin-1-yl)pentyl)oxy)benzo[d]thiazol-2-yl)methanone]
inhibition at 10 µM (human H1R): 91.2 ± 8.2% | IC50 (human AChE): > 10000 nM | inhibition at 10 µM (human AChE): 27.8 ± 5.91% | IC50 (BuChE from human serum): 2380 ± 320 nM | inhibition at 10 µM (BuChE from human serum): 81 ± 1% | inhibition at 10 µM (human recombinant MAO-A): 37 ± 4% | IC50 (human recombinant MAO-B): 3040 ± 460 nM | MAO-B % Inhibition at 10 µM (human recombinant MAO-B): 70 ± 4% | inhibition at 10 µM (human recombinant MAO-B): > 60% | inhibition at 10 µM (human H4R): 38.8 ± 28% | Ki (human H3R): 68 nM

O=C(c1nc2ccc(OCCCCCN3CCCC3)cc2s1)N1CCCC1 [Compound 3s, Pyrrolidin-1-yl-(6-((5-(pyrrolidin-1-yl)pentyl)oxy)benzo[d]thiazol-2-yl)methanone]
inhibition at 10 µM (human H1R): 66.2 ± 7.3% | inhibition at 10 µM (human AChE): 58.6 ± 3.73% | IC50 (BuChE from human serum): 2350 ± 230 nM | inhibition at 10 µM (BuChE from human serum): 69 ± 1% | inhibition at 10 µM (human recombinant MAO-A): 45 ± 3% | IC50 (human recombinant MAO-B): 1600 ± 160 nM | MAO-B % Inhibition at 10 µM (human recombinant MAO-B): 75 ± 3% | inhibition at 10 µM (human recombinant MAO-B): > 60% | inhibition at 10 µM (human H4R): 63.7 ± 13% | Ki (human H3R): 36 nM

O=C(NC1CCCC1)c1nc2ccc(OCCCCCNC3CCCC3)cc2s1 [Compound 3t, N-Cyclopentyl-6-((5-(cyclopentylamino)pentyl)oxy)benzo[d]thiazole-2-carboxamide]
inhibition at 10 µM (human H1R): 47.3 ± 8.91% | IC50 (human AChE): 3550 ± 540 nM | inhibition at 10 µM (human AChE): 75.5 ± 4.73% | IC50 (BuChE from human serum): 1750 ± 60 nM | inhibition at 10 µM (BuChE from human serum): 84 ± 1% | inhibition at 10 µM (human recombinant MAO-A): 39 ± 4% | inhibition at 10 µM (human recombinant MAO-B): 47 ± 5% | inhibition at 10 µM (human H4R): 41.8 ± 31.7% | Ki (human H3R): > 1000 nM

O=C(NCCN1CCCC1)c1nc2ccc(OCCCNCCN3CCCC3)cc2s1 [Compound 4a, N-(2-(Pyrrolidin-1-yl)ethyl)-6-(3-((2-(pyrrolidin-1-yl)ethyl)amino)propoxy)benzo[d]thiazole-2-carboxamide]
inhibition at 1 µM (human H1R): 28.1 ± 39.1% | IC50 (human AChE): 1240 ± 70 nM | inhibition at 10 µM (human AChE): 86.9 ± 1.51% | IC50 (BuChE from human serum): 169 ± 19 nM | inhibition at 10 µM (BuChE from human serum): 97 ± 1% | inhibition at 10 µM (human recombinant MAO-A): 29 ± 4% | inhibition at 10 µM (human recombinant MAO-B): 51 ± 1% | Ki (human H3R): 53 nM

O=C(c1nc2ccc(OCCCN3CCCCCC3)cc2s1)N1CCCCCC1 [Compound 4b, Azepan-1-yl-(6-(3-(azepan-1-yl)propoxy)benzo[d]thiazol-2-yl)methanone]
inhibition at 1 µM (human H1R): 41.9 ± 33.8% | IC50 (human AChE): 5910 ± 670 nM | inhibition at 10 µM (human AChE): 62.8 ± 3.35% | inhibition at 10 µM (BuChE from human serum): 51 ± 2% | inhibition at 10 µM (human recombinant MAO-A): 29 ± 2% | inhibition at 10 µM (human recombinant MAO-B): 46 ± 5% | Ki (human H3R): 12 nM

CC1CCCN(CCCOc2ccc3nc(C(=O)N4CCCC(C)C4)sc3c2)C1 (centres unmarked) [Compound 4k, (3-Methylpiperidin-1-yl)(6-(3-(3-methylpiperidin-1-yl)propoxy)benzo[d]thiazol-2-yl)methanone]
inhibition at 1 µM (human H1R): 42.9 ± 28.3% | IC50 (human AChE): > 10000 nM | inhibition at 10 µM (human AChE): 34.4 ± 2.15% | inhibition at 10 µM (BuChE from human serum): 30 ± 5% | inhibition at 10 µM (human recombinant MAO-A): 32 ± 2% | inhibition at 10 µM (human recombinant MAO-B): 48 ± 5% | Ki (human H3R): 64 nM
